The values that follow come from US20100130598A1, “METHODS FOR INDUCING PROGRAMMED CELL DEATH” (Novogen Research Pty Ltd., priority 2008, published 2010).

The structures appear in SMILES notation.

In one test the test system is MIAPaCa-2 cells. The experiment in a line: Western blot analysis of apoptosis regulatory proteins, p21 and p53, MIAPaCa-2. The format is cell-based, human. An excerpt: (§1) Cells. Human pancreatic cell lines HPAC, MIAPaCa-2 and PANC-1 were obtained from the ATCC. (Manassas, Va.). The cells were maintained in DMEM media with Gln and high glucose (Mediatech, Manassas, Va.) with 10% fetal bovine serum (FBS, HyClone, Logan, Utah) and pencillin/streptomycin.
Antibodies. Antibodies utilised in this study specific to p53 and, p21 were obtained from (Calbiochem, EMD, San Diego, Calif.), Caspase 9, XIAP, COX IV, Bcl2 and Akt (Cell Signaling Technology, Danvers, Mass.), Caspase 2, Cytochrome c and Bid (BD Pharmingen, San Diego, Calif.). GAPDH (RDI, Concord, Mass.) or β-actin (Sigma, St. Louis, Mo.) was used as a housekeeping gene to standardize the protein loading on the gels and blots.
Western blot analysis. Cells were seeded on 100 mm tissue culture plates and grown overnight to ˜90% confluence. Cells were then treated with the drug combinations for indicated time points. After the final treatment step, the cells were lysed with 500 μL of a lysis buffer containing 1% Nonidet P-40, 0.1% SDS, 0.5% deoxycholate, 150 mM NaCl, 50 mM Tris-HCl pH7.5, 1 mM EDTA, 1 mM PMSF and protease inhibitors (Roche) on ice for 30 minutes. Cell lysates were harvested with a sterile cell scraper and centrifuged at 15,000×g for 15 minutes to remove cell debris. Protein was assayed by the BCA method (Pierce) and 50 μg aliquots were separated on 12%, T, 2.6%C SDS-PAGE gels. Proteins were electrophoretically transferred to PVDF membranes (Immobilon P, Millipore, Billerica, Mass.) by the wet transfer method. These membranes were probed with specific antibodies and with anti-GAPDH which was used as the housekeeping gene to standardize the protein loading. The blots were developed on X-ray films using HRP-conjugated secondary antibodies (Southern Biotech, Birmingham, Ala.) and a chemiluminescent substrate (ECL, Amersham, N.Y.).
Background: Immunoblotting shows a protein as a band on a membrane.

Test [1] concerns Caspase 2, 3 and 9 in PANC-1 cells. Put plainly: In situ caspase activity by flow cytometry, PANC-1. Type of test: cell-based, human. As to conditions: PANC-1, 10 μM, after 48 hrs. As to the method:
as §1
Caspase Activity After 48 h treatment with 10 μM Compound 10, HPAC, MIAPaCa-2 and PANC-1 cells were harvested by trypsinization and resuspended in DMEM media with 10% FBS. The cells were incubated with caspase substrates for 1 h at 37° C., 5% CO2, then probed with Annexin-V-Cy5 and sytox blue. Caspase +ve cells were gated as shown in the histograms and these cells are indicated on the Annexin-V-Cy5/sytox blue spectra as blue cells. In situ caspase activity was assayed using fluorescent substrates. For Caspase 2, FITC-VDVAD-fmk (Biovision K182-100), for Caspase 3, FITC-DEVD-fmk (K183-100) and for Caspase 9, FITC-LEHD-fmk (K199-100) was used. These substrates bind irreversibly to their respective activated caspases, and caspase activation was quantitated by flow cytometry. […] Caspase activation, apoptosis and necrosis were measured simultaneously using a violet, blue and red laser in a BD LSRII flow cytometer.
(In flow cytometry, cells or beads pass a laser one at a time.)

For another test, the system named is XIAP. Put plainly: Western blot of EOC whole cell lysates for XIAP. Type of test: cell-based, human. Conditions: EOC cells, 10 g/ml (as printed, FIG. 2 legend). An excerpt: (§2) Protein preparation and cellular fractionation. After drug treatment, protein was extracted and measured as previously described (Alvero et al, 2006). For separation of the cytoplasmic and mitochondrial fractions, cell pellets were processed using the ApoAlert™ Cell Fractionation Kit (BD Biosciences, San Jose, Calif.) according to the manufacturer's instructions. For separation of the cytoplasmic and nuclear fractions, pellets were processed using NE-PER Nuclear and Cytoplasmic Extraction (Pierce Biotechnology, Inc., Rockford, Ill.).
SDS-PAGE and Western blots. Cell lysates (20 μg protein) were denatured in sample buffer (2.5% SDS, 10% glycerol, 5% β-mercapto-ethanol, 0.15 M Tris (pH=6.8) and 0.01% bromophenol blue) and subjected to 12% SDS-PAGE as previously described (Kamsteeg et al, 2003). […]

A further test deals with Bid, Bax, Beclin-1. Put plainly: Western blot of cell lysates and mitochondrial fractions for Bid, Bax, Beclin-1. The format is cell-based, human. Conditions: EOC cells.
Text: as §2
SDS-PAGE and Western blots. Cell lysates (20 μg protein) were denatured in sample buffer (2.5% SDS, 10% glycerol, 5% β-mercapto-ethanol, 0.15 M Tris (pH=6.8) and 0.01% bromophenol blue) and subjected to 12% SDS-PAGE as previously described (Kamsteeg et al, 2003). The following antibodies and concentrations were used: mouse anti-XIAP (BD, 1:1,000), rabbit anti-MAP LC3 (1:200), rabbit anti-actin (Sigma, 1:10,000), rabbit anti-phosphorylated Akt (Cell Signaling, 1:1,000), rabbit anti-Akt (Cell Signaling, 1:1000), rabbit anti-phosphorylated mTOR (Cell Signaling, 1:1000), rabbit anti-mTOR (Cell Signaling, 1:1000), rabbit anti-cytochrome c (Clontech Laboratories, Inc, Mountainview, Calif., 1:100), rabbit anti-Omi (R&D Systems, Minneapolis, Minn., 1:5000), rabbit anti-Bid (Cell Signaling, 1:1000), mouse anti-Bax (BD Pharmingen, 1:250), rabbit anti-VDAC (Sigma Aldrich, 1:2000), mouse anti-Bcl2 (BD Pharmingen, 1:500), rabbit anti-AIF (Sigma Aldrich, 1:1000), rabbit anti-EndoG (Sigma Aldrich, 1:1000), mouse anti-topoisomerase I (BD Pharmingen, 1:10,000). Proteins were visualized using enhanced chemiluminescence (Pierce, Rockford Ill.).

The test system of the next test is EndoG. Put plainly: Immunohistochemistry of xenograft tumors for EndoG. Type of test: in vivo, NCR nude mice. Conditions: paraffin-embedded tumor sections; control tumors only cytoplasmic staining. How it is done:
Mouse xenograft studies. The in vivo study as approved by the Yale University Institutional Animal Care & Use Committee. Cells (1×10^6 cells) were resuspended in 200 μ1 total volume of 50% RPMI and 50% BD Matrigel Matrix (BD Biosciences, Bedford, Mass.) and injected subcutaneously into the right flank of NCR nude mice. Intra-peritoneal therapy commenced eight days post-inoculation as follows: Paclitaxel 10 mg/kg q×3d, Carboplatin 40 mg/kg q×7d, and Compound 1 in 20% HPBCD, 100 mg/kg every day. Control groups received 20% HPBCD in PBS. Mice were treated and observed for 3 weeks. Tumor size was determined by caliper measurements and anti-tumor activity was analyzed with respect to maximal tumor inhibition (treated/control, T/C) as described previously (Kamsteeg et al, 2003).
Immunohistochemistry. Immunohistochemistry was performed as described previously (Kelly et al, 2006) using rabbit anti-EndoG (Lifespan Biosciences, Seattle, Wash.) at 1:100 dilution.

Take `COc1ccc(C2c3ccc(O)cc3OCC2c2ccc(O)cc2)cc1` (stereo not shown) [Compound 10, 3-(4-hydroxyphenyl)-4-(4-methoxyphenyl)chroman-7-ol]: the “expression of p53” value in the test with MIAPaCa-2 cells (MIAPaCa-2 (mutant p53), 10 μM) is listed as “unaffected”. In the test with MIAPaCa-2 cells (MIAPaCa-2, 10 μM), the “cleavage of Caspase 3” value was “did not cause significant cleavage”, the “full-length Caspase 2 (48Kd) cleavage” value is “cleaved”, the “levels of Bcl2” value is given as “lowered” and the p21 entry is recorded as “elevated”. Besides, the “total Akt” value with MIAPaCa-2 cells (MIAPaCa-2, 10 μM, early timepoint (4 hr)) is “reduced”. Further, the Bid cleavage result with MIAPaCa-2 cells (MIAPaCa-2, 10 μM, over time) was “induced Bid cleavage over time”. For the same compound, in the test with MIAPaCa-2 cells (MIAPaCa-2, 10 μM, time course 0-48 hrs), the “cleaved caspase 9 (17kd)” value is “initial drop in cleaved caspase 9 (17kd) followed by an increase after 16 hr”. Also, in the test on MIAPaCa-2 cells (MIAPaCa-2, 10 μM, degradation more pronounced than in HPAC), the “level of XIAP” value was “reduced”. Besides, the “caspase 2, 3 and 9 activation” value in test [1] is “activated”.
For `COc1ccc(C2c3ccc(O)c(C)c3OCC2c2ccc(O)cc2)cc1` (stereo not shown) [Compound 1, 3-(4-hydroxyphenyl)-4-(4-methoxyphenyl)-8-methylchroman-7-ol], the “status of XIAP” value in the test with XIAP was “no change”. The “mitochondrial translocation of Bax” value with Bid, Bax, Beclin-1 (10 μg/ml, 2 h post-treatment) was “induces mitochondrial translocation”. Besides, in the test with Bid, Bax, Beclin-1 (10 μg/ml, as early as 1 h post-treatment), the “Beclin-1 translocation to the mitochondria” value is given as “translocates to the mitochondria”. Also, the “activation of Bid” value in the test on Bid, Bax, Beclin-1 (10 μg/ml, total cell lysates) is recorded as “does not induce”. In addition, in the test with Bid, Bax, Beclin-1 (data not shown), the “Beclin-1 message or protein expression (RT-PCR, whole cell lysates)” value was “no changes”. Also, the “localization of EndoG in tumors” value with EndoG is given as “nuclear localization”.
